Measurements published in the OligoGym collection.
HELM strings list units from the 5' end as sugar, base in round brackets, then linkage (d deoxyribose, r ribose, m 2'-O-methyl, p phosphodiester). Strings are as the collection lists them; they lack the last nucleoside at the 3' end of the tested compound. [moe] = 2'-O-(2-methoxyethyl) (MOE); [sp] = phosphorothioate linkage; [m5C] = 5-methylcytosine

Molecular target: SMN2
Test: mouse, dose not given
Conditions: ASO

Row | Substance | 3 h FOB score [score 0-7]
1 | RNA1{[moe](A)[sp].[moe]([m5C])[sp].[moe](T)[sp].[moe](T)[sp].[moe](T)[sp].[moe]([m5C])[sp].[moe](A)[sp].[moe](T)[sp].[moe](A)[sp].[moe](A)[sp].[moe](T)[sp].[moe](G)[sp].[moe]([m5C])[sp].[moe](T)[sp].[moe](G)}$$$$ (last 3' nucleoside missing) | 3.75
2 | RNA1{[moe](T)[sp].[moe](T)p.[moe]([m5C])[sp].[moe](A)[sp].[moe]([m5C])[sp].[moe](T)[sp].[moe](T)[sp].[moe](T)[sp].[moe]([m5C])[sp].[moe](A)[sp].[moe](T)[sp].[moe](A)[sp].[moe](A)[sp].[moe](T)[sp].[moe](G)[sp].[moe]([m5C])[sp].[moe](T)[sp].[moe](G)}$$$$ (last 3' nucleoside missing) | 3
3 | RNA1{[moe]([m5C])[sp].[moe](A)p.[moe]([m5C])[sp].[moe](T)[sp].[moe](T)[sp].[moe](T)[sp].[moe]([m5C])[sp].[moe](A)[sp].[moe](T)[sp].[moe](A)[sp].[moe](A)[sp].[moe](T)[sp].[moe](G)[sp].[moe]([m5C])[sp].[moe](T)p.[moe](G)[sp].[moe](G)}$$$$ (last 3' nucleoside missing) | 0
4 | RNA1{[moe](A)[sp].[moe]([m5C])[sp].[moe](T)[sp].[moe](T)[sp].[moe](T)[sp].[moe]([m5C])[sp].[moe](A)p.[moe](T)p.[moe](A)p.[moe](A)p.[moe](T)[sp].[moe](G)[sp].[moe]([m5C])[sp].[moe](T)[sp].[moe](G)[sp].[moe](G)}$$$$ (last 3' nucleoside missing) | 0.25
5 | RNA1{[moe](A)[sp].[moe](T)[sp].[moe](T)[sp].[moe]([m5C])[sp].[moe](A)[sp].[moe]([m5C])[sp].[moe](T)[sp].[moe](T)[sp].[moe](T)[sp].[moe]([m5C])[sp].[moe](A)[sp].[moe](T)[sp].[moe](A)[sp].[moe](A)[sp].[moe](T)[sp].[moe](G)[sp].[moe]([m5C])[sp].[moe](T)}$$$$ (last 3' nucleoside missing) | 3.5
6 | RNA1{[moe]([m5C])[sp].[moe](A)p.[moe]([m5C])p.[moe](T)p.[moe](T)[sp].[moe](T)[sp].[moe]([m5C])[sp].[moe](A)[sp].[moe](T)[sp].[moe](A)[sp].[moe](A)[sp].[moe](T)[sp].[moe](G)[sp].[moe]([m5C])p.[moe](T)p.[moe](G)[sp].[moe](G)}$$$$ (last 3' nucleoside missing) | 0
7 | RNA1{[moe](A)[sp].[moe](T)[sp].[moe](T)[sp].[moe]([m5C])[sp].[moe](A)[sp].[moe]([m5C])[sp].[moe](T)[sp].[moe](T)[sp].[moe](T)[sp].[moe]([m5C])p.[moe](A)[sp].[moe](T)[sp].[moe](A)[sp].[moe](A)[sp].[moe](T)[sp].[moe](G)[sp].[moe]([m5C])[sp].[moe](T)[sp].[moe](G)}$$$$ (last 3' nucleoside missing) | 4
8 | RNA1{[moe]([m5C])[sp].[moe](A)[sp].[moe]([m5C])[sp].[moe](T)[sp].[moe](T)[sp].[moe](T)p.[moe]([m5C])p.[moe](A)p.[moe](T)p.[moe](A)p.[moe](A)p.[moe](T)p.[moe](G)[sp].[moe]([m5C])[sp].[moe](T)[sp].[moe](G)[sp].[moe](G)}$$$$ (last 3' nucleoside missing) | 0
9 | RNA1{[moe]([m5C])[sp].[moe](T)[sp].[moe](T)[sp].[moe](T)[sp].[moe]([m5C])[sp].[moe](A)[sp].[moe](T)p.[moe](A)p.[moe](A)p.[moe](T)[sp].[moe](G)[sp].[moe]([m5C])[sp].[moe](T)[sp].[moe](G)[sp].[moe](G)}$$$$ (last 3' nucleoside missing) | 2
10 | RNA1{[moe]([m5C])[sp].[moe](A)[sp].[moe]([m5C])[sp].[moe](T)[sp].[moe](T)[sp].[moe](T)[sp].[moe]([m5C])[sp].[moe](A)[sp].[moe](T)[sp].[moe](A)[sp].[moe](A)[sp].[moe](T)[sp].[moe](G)[sp].[moe]([m5C])[sp].[moe](T)[sp].[moe](G)[sp].[moe](G)[sp].[moe]([m5C])}$$$$ (last 3' nucleoside missing) | 0
11 | RNA1{[moe]([m5C])[sp].[moe](T)p.[moe](T)p.[moe](T)p.[moe]([m5C])p.[moe](A)[sp].[moe](T)[sp].[moe](A)[sp].[moe](A)[sp].[moe](T)[sp].[moe](G)p.[moe]([m5C])p.[moe](T)p.[moe](G)[sp].[moe](G)}$$$$ (last 3' nucleoside missing) | 0
12 | RNA1{[moe](A)[sp].[moe]([m5C])[sp].[moe](T)[sp].[moe](T)[sp].[moe](T)[sp].[moe]([m5C])[sp].[moe](A)[sp].[moe](T)[sp].[moe](A)[sp].[moe](A)[sp].[moe](T)[sp].[moe](G)[sp].[moe]([m5C])[sp].[moe](T)[sp].[moe](G)[sp].[moe](G)}$$$$ (last 3' nucleoside missing) | 1.12
13 | RNA1{[moe]([m5C])[sp].[moe](T)p.[moe](T)p.[moe](T)p.[moe]([m5C])[sp].[moe](A)[sp].[moe](T)[sp].[moe](A)[sp].[moe](A)[sp].[moe](T)[sp].[moe](G)[sp].[moe]([m5C])p.[moe](T)p.[moe](G)[sp].[moe](G)}$$$$ (last 3' nucleoside missing) | 0
14 | RNA1{[moe](T)[sp].[moe](T)[sp].[moe]([m5C])[sp].[moe](A)[sp].[moe]([m5C])[sp].[moe](T)[sp].[moe](T)[sp].[moe](T)[sp].[moe]([m5C])[sp].[moe](A)[sp].[moe](T)[sp].[moe](A)[sp].[moe](A)[sp].[moe](T)p.[moe](G)[sp].[moe]([m5C])p.[moe](T)[sp].[moe](G)}$$$$ (last 3' nucleoside missing) | 1
15 | RNA1{[moe](T)[sp].[moe]([m5C])[sp].[moe](A)[sp].[moe]([m5C])[sp].[moe](T)[sp].[moe](T)[sp].[moe](T)[sp].[moe]([m5C])[sp].[moe](A)[sp].[moe](T)[sp].[moe](A)p.[moe](A)[sp].[moe](T)[sp].[moe](G)p.[moe]([m5C])[sp].[moe](T)[sp].[moe](G)}$$$$ (last 3' nucleoside missing) | 2
16 | RNA1{[moe](A)[sp].[moe](T)p.[moe](T)[sp].[moe]([m5C])[sp].[moe](A)[sp].[moe]([m5C])[sp].[moe](T)[sp].[moe](T)[sp].[moe](T)[sp].[moe]([m5C])[sp].[moe](A)[sp].[moe](T)[sp].[moe](A)[sp].[moe](A)[sp].[moe](T)[sp].[moe](G)[sp].[moe]([m5C])p.[moe](T)[sp].[moe](G)}$$$$ (last 3' nucleoside missing) | 2
17 | RNA1{[moe]([m5C])[sp].[moe](T)[sp].[moe](T)p.[moe](T)[sp].[moe]([m5C])[sp].[moe](A)p.[moe](T)[sp].[moe](A)[sp].[moe](A)p.[moe](T)[sp].[moe](G)[sp].[moe]([m5C])p.[moe](T)[sp].[moe](G)[sp].[moe](G)}$$$$ (last 3' nucleoside missing) | 0
18 | RNA1{[moe](T)[sp].[moe]([m5C])[sp].[moe](A)[sp].[moe]([m5C])[sp].[moe](T)[sp].[moe](T)[sp].[moe](T)[sp].[moe]([m5C])[sp].[moe](A)p.[moe](T)[sp].[moe](A)[sp].[moe](A)[sp].[moe](T)[sp].[moe](G)[sp].[moe]([m5C])p.[moe](T)[sp].[moe](G)}$$$$ (last 3' nucleoside missing) | 3.25
19 | RNA1{[moe]([m5C])[sp].[moe](A)[sp].[moe]([m5C])[sp].[moe](T)[sp].[moe](T)[sp].[moe](T)[sp].[moe]([m5C])p.[moe](A)[sp].[moe](T)[sp].[moe](A)[sp].[moe](A)[sp].[moe](T)[sp].[moe](G)[sp].[moe]([m5C])[sp].[moe](T)[sp].[moe](G)[sp].[moe](G)}$$$$ (last 3' nucleoside missing) | 0
20 | RNA1{[moe](A)[sp].[moe]([m5C])[sp].[moe](T)[sp].[moe](T)[sp].[moe](T)[sp].[moe]([m5C])p.[moe](A)p.[moe](T)p.[moe](A)p.[moe](A)p.[moe](T)p.[moe](G)[sp].[moe]([m5C])[sp].[moe](T)[sp].[moe](G)[sp].[moe](G)}$$$$ (last 3' nucleoside missing) | 0
21 | RNA1{[moe]([m5C])[sp].[moe](T)[sp].[moe](T)[sp].[moe](T)[sp].[moe]([m5C])[sp].[moe](A)p.[moe](T)p.[moe](A)p.[moe](A)p.[moe](T)p.[moe](G)[sp].[moe]([m5C])[sp].[moe](T)[sp].[moe](G)[sp].[moe](G)}$$$$ (last 3' nucleoside missing) | 1
22 | RNA1{[moe](A)[sp].[moe]([m5C])[sp].[moe](T)[sp].[moe](T)[sp].[moe](T)[sp].[moe]([m5C])[sp].[moe](A)[sp].[moe](T)[sp].[moe](A)p.[moe](A)p.[moe](T)p.[moe](G)p.[moe]([m5C])[sp].[moe](T)[sp].[moe](G)[sp].[moe](G)}$$$$ (last 3' nucleoside missing) | 0
23 | RNA1{[moe](A)[sp].[moe]([m5C])p.[moe](T)p.[moe](T)p.[moe](T)[sp].[moe]([m5C])[sp].[moe](A)[sp].[moe](T)[sp].[moe](A)[sp].[moe](A)[sp].[moe](T)[sp].[moe](G)p.[moe]([m5C])p.[moe](T)p.[moe](G)[sp].[moe](G)}$$$$ (last 3' nucleoside missing) | 0
24 | RNA1{[moe]([m5C])[sp].[moe](A)[sp].[moe]([m5C])[sp].[moe](T)[sp].[moe](T)[sp].[moe](T)[sp].[moe]([m5C])[sp].[moe](A)[sp].[moe](T)[sp].[moe](A)[sp].[moe](A)[sp].[moe](T)[sp].[moe](G)[sp].[moe]([m5C])p.[moe](T)p.[moe](G)[sp].[moe](G)}$$$$ (last 3' nucleoside missing) | 0
25 | RNA1{[moe](A)[sp].[moe](T)[sp].[moe](T)[sp].[moe]([m5C])[sp].[moe](A)[sp].[moe]([m5C])[sp].[moe](T)[sp].[moe](T)[sp].[moe](T)[sp].[moe]([m5C])[sp].[moe](A)[sp].[moe](T)[sp].[moe](A)[sp].[moe](A)[sp].[moe](T)[sp].[moe](G)[sp].[moe]([m5C])[sp].[moe](T)[sp].[moe](G)}$$$$ (last 3' nucleoside missing) | 4
